Assay results reported in PMC7435928, “Preclinical Evaluation of NHS-Activated Gold Nanoparticles Functionalized with Bombesin or Neurotensin-Like Peptides for Targeting Colon and Prostate Tumours” (Molecules, 2020).
Blank lines part the entries; values can stand above or below the molecule they belong to. Peptide text beside a SMILES is read from it. * marks the point of attachment. DOTA = O=C(O)CN1CCN(CC(=O)O)CCN(CC(=O)*)CCN(CC(=O)O)CC1

What was measured:
[1] = system: human proliferating CRL9855 monocytes; test: MTS reduction test (cytotoxicity); conditions: free peptides 1–4 nmol/mL, 48 h, triplicate
Method: (§4) The MTS reduction test was used to evaluate the number of metabolically active cells in culture, under various experimental conditions.
(§5) Briefly, cells were cultivated in 96-well plates (3 × 10^4 CRL9855 cells/mL, 10 × 10^4 HT-29 cells/mL and 5 × 10^4 DU-145 cells/mL) in a total volume of 100 μL. Adherent cells were left for 24 h to adhere to the culture well. Thereafter, NPs and peptides were added at various concentrations and cells were cultivated for 48 h. Non-treated cells were considered as control (CTRL). For background assessment culture medium, NPs and peptides were cultivated in absence of cells, considering that NPs might interfere with the spectrophotometric measurement. All samples were cultivated in triplicate. At the end of the incubation time, 20 μL of MTS reagent were added and samples were cultivated for another 1–3 h until the reaction color was developed. The OD at 490 nm was measured in each sample using a Tecan Sunrise ELISA reader with Magellan universal reader control and data analysis software (Tecan Group Ltd., Mannedorf, Switzerland). Final OD in cellular samples was calculated by subtracting the OD of the corresponding background samples.

[2] = system: human colon carcinoma HT-29 cells; test: MTS reduction test (cytotoxicity); conditions: free peptides 1–4 nmol/mL, 48 h, triplicate
Method: as §4, §5

[3] = system: human prostate carcinoma DU-145 cells; test: MTS reduction test (cytotoxicity); conditions: free peptides 1–4 nmol/mL, 48 h, triplicate
Method: as §4, §5

[4] = target: neurotensin NTRS1, NTRS2 and NTRS3 receptors; design: method as in printed for the value; conditions: target receptors as in Table 3 (NTRS1, NTRS2; SR 14294 also NTRS3); not measured in this paper, ref not given; cited from earlier work
[5] = system: prostate tumour bearing mice; conditions: 60 min p.i.; cited from earlier work
Method: (§1) Several tracers have been developed to target and facilitate the molecular imaging of colon or prostate cancer, such as: ^68Ga-NGR with over 2.7 ± 0.65% ID/g in colon tumour at 30 min p.i., [^18F]FDG with 2.5 ± 0.5% ID/g [^18F]FDG in colon tumours, [^18F]fluorocholine (FCH) with 7.9 ± 5% ID/g at 60 min p.i. in prostate tumour bearing mice. Compared to these, the values obtained for tumour uptake using the four studied nanotracers are between 2.53 ± 0.26% ID/g for ^68Ga-DOTA-NMN-AuNP to 9.82 ± 2.28% ID/g for ^68Ga-DOTA-PEG(4)-BBN(7-14)-AuNP in colon tumours and 2.79 ± 0.4% ...

in vivo [6] = test: in vivo; design: species or system mice; conditions: male, NU/J athymic nude, mouse, 3.81 MBq, total radioactivity, Biodistribution
Method: (§2) All experiments were conducted according to the guidelines of EU Directive 2010/63 approved by The Romanian National Sanitary Veterinary and Food Safety Authority (NSVFSA, approval no. 442/25.02.2019). Athymic nude male mice (NU/J, 8–10 weeks old) were obtained from The Jackson Laboratory (Bar Harbor, ME, USA). Animals were housed in ventilated cages with a 12-h light-dark cycle and receive food and water ad libitum. Colon/prostate tumours were induced 7–10 days prior the experiments by a subcutaneous injection of 1 × 10^6 HT-29/DU-145 cancer cells. All injected animals were monitored daily until an ideal size of tumour for biodistribution was reached (60–100 mm^3). 3.81 ± 0.51 MBq of ^68Ga-labelled tracers were retro-orbital injected into the ophthalmic venous sinus after intraperitoneal anesthesia with 0.1 mL ketamine/xylazine/acepromazine cocktail: 7.5 mg/mL ketamine (Narkamon Bio, Bioveta, Cluj-Napoca, Romania), 1.5 mg/mL xylazine (Narcoxyl 2, MSD Animal Health, Madison, NJ, USA) and 0.25 mg/mL acepromazine (Sedam, SC Pasteur Filiala Filipesti SRL, Filipestii de Padure, Romania). All animals were sacrificed at 30 min p.i. and the organs were weighted and measured in a dose calibrator (Biodex Medical Systems Inc., Shirley, NY, USA). The biodistribution was calculated as percent of injected dose per gram of organ (% ID/g) ± standard deviation (SD, n = 4 for each injected tracer).
(§3) All the data were expressed as means ± standard deviation (n = 4). Comparison of results among the groups (% ID/g vs. tracers, % ID/g vs. tracers and organs, % ID/g vs. tracers and tumoral cells), was carried out by one-way analysis of variance (ANOVA) and Tukey post-hoc analysis using SPSS v26 (IBM, Armonk, NY, USA) The results were considered significant for a p-value less than 0.05.

in vivo [7] = test: in vivo; design: species or system mice; conditions: male, NU/J athymic nude, mouse, 3.81 MBq, total radioactivity, Biodistribution; remark: listed apart in the source
Method: as §2, §3

[8] = Dynamic light scattering of peptide-functionalized gold nanoparticles; format: physicochemical; conditions: cold peptide-functionalized AuNPs, 25 °C; for Hydrodynamic Diameter: DLS, Nano ZS, 633 nm, 90°; for Zeta Potential: DLS/zetasizer
Description: The reaction between DOTA-peptides and NHS-activated PEG-AuNPs was monitored by detecting changes in nanoparticles size as a peptide layer is formed around nanoparticles. The initial hydrodynamic diameter of bare PEG-AuNPs was 42.56 nm, and after functionalization increased to approximately 73 nm (Figure 1). The electric potential at the boundary of the double layer (counter ions and Stern layer) of nanoparticles, also known as zeta potential is higher than −44 mV. Thus, the peptide-functionalized nanoparticles have sufficient repulsive force to anticipate a good physical stability.
The size distribution and zeta potential of cold peptide functionalized-gold nanoparticles were measured using a Nano ZS zetasizer system (Malvern Instruments, Malvern, UK). Measurement parameters were as follows: a laser wavelength of 633 nm (He-Ne), measurement angle of 90°, measurement temperature of 25 °C, and refractive index of medium n = 1.330.

colon tumour = conditions: in vivo; cited from earlier work
Method: as §1

HT-29 colon cancer cells = test: Uptake and retention, rotating radioimmunoassay (LigandTracer Yellow); format: cell-based, human; conditions: HT-29 cells, 2–3 nmol peptide, real-time signal during incubation
Method: The binding kinetic (uptake and retention) of the ^68Ga-labelled peptides and peptide-functionalized gold nanoparticles we investigated using rotating radioimmunoassay. 2–3 nmol of each peptide labelled with ^68Ga was incubated on DU-145 prostate and HT-29 colon cancer cells. After uptake measurement, the radioactive medium was removed and the cells were washed with fresh DMEM-F12 medium. The cell retention is measured after this process, during each rotation of the Petri dish support the detector is measuring only the signal coming from the tracers bound to cells. The results are reported as measured signal during the time of analysis (where t = 0 min is the time of incubation), as illustrated in Figure 3. […]
The retention level is illustrated after the indicator arrows and reflects the percent of activity retained by the cells from the maximum counted during uptake, after hot medium removal and cells washing step. […]
Cells were maintained in culture according to the protocol provided by the depositor. […] Cells at passage 6–9 and were counted before seeding for experimentation by optical microscopy using a Burker-Turk counting chamber, and cell viability was assessed by the trypan blue exclusion test. […]

Molecule: CSCC[C@H](NC(=O)[C@H](Cc1ccccc1)NC(=O)[C@H](Cc1c[nH]cn1)NC(=O)CNC(=O)[C@@H](NC(=O)[C@H](C)NC(=O)[C@H](Cc1c[nH]c2ccccc12)NC(=O)[C@H](CC(C)C)NC(=O)[C@H](CC(N)=O)NC(=O)CNC(=O)CN1CCN(CC(=O)O)CCN(CC(=O)O)CCN(CC(=O)O)CC1)[C@@H](C)O)C(N)=O [DOTA-NMB]
Effect on MTS reduction [1]: do not alter MTS reduction
Effect on MTS reduction [2]: do not alter MTS reduction
Effect on MTS reduction [3]: do not alter MTS reduction

Molecule: Cc1ccc(S(=O)(=O)Nc2ccc3c(c2)c(C(=O)C(F)(F)F)cn3CC(=O)N[C@@H](CC(C)C)C(=O)O)cc1 [NTRC 824]
Kd [4]: 38 nM

Molecule: COc1cccc(OC)c1-c1cc(C(=O)NC2(C(=O)O)C3CC4CC(C3)CC2C4)nn1-c1ccc(C(=O)N(C)CCCN(C)C)cc1C(C)C (centres unmarked) [SR 14294]
Kd [4]: 10 nM

Molecule: COc1cccc(OC)c1-c1cc(C(=O)NC2(C(=O)O)C3CC4CC(C3)CC2C4)nn1-c1ccnc2cc(Cl)ccc12 (centres unmarked) [SR 48692]
Kd [4]: 15 nM

Molecule: C[N+](C)(CF)CCO [[^18F]fluorocholine (FCH), [^18F]fluorocholine]
Tumour uptake [5]: 7.9 ± 5 % ID/g

tissue uptake at 0.5 h (in vivo [6]; Pancreas): 1.36 ± 0.07 %ID/g
tissue uptake at 0.5 h (in vivo [6]; Tumour (prostate)): 2.54 ± 0.42 %ID/g
tissue uptake at 0.5 h (in vivo [7]; Bone): 0.1 ± 0.07 %ID/g
tissue uptake at 0.5 h (in vivo [7]; Tumour (colon)): 1.73 ± 0.08 %ID/g
Molecule: CSCC[C@H](NC(=O)[C@H](Cc1ccccc1)NC(=O)[C@H](Cc1c[nH]cn1)NC(=O)CNC(=O)[C@@H](NC(=O)[C@H](C)NC(=O)[C@H](Cc1c[nH]c2ccccc12)NC(=O)[C@H](CC(C)C)NC(=O)[C@H](CC(N)=O)NC(=O)CNC(=O)CN1CCN(CC(=O)O)CCN(CC(=O)O)CCN(CC(=O)O)CC1)[C@@H](C)O)C(N)=O [^68Ga-DOTA-NMB, metal not drawn]

tissue uptake at 0.5 h (in vivo [6]; Heart): 0.99 ± 0.26 %ID/g
tissue uptake at 0.5 h (in vivo [6]; Kidneys): ~60 %ID/g
tissue uptake at 0.5 h (in vivo [6]; Lungs): 2.37 ± 0.5 %ID/g
tissue uptake at 0.5 h (in vivo [6]; Pancreas): 0.58 ± 0.02 %ID/g
tissue uptake at 0.5 h (in vivo [6]; Tumour (prostate)): 1.77 ± 0.5 %ID/g
tissue uptake at 0.5 h (in vivo [7]; Bone): 0.16 ± 0.02 %ID/g
tissue uptake at 0.5 h (in vivo [7]; Brain): 0.04 ± 0.01 %ID/g
tissue uptake at 0.5 h (in vivo [7]; Heart): 1 ± 0.42 %ID/g
tissue uptake at 0.5 h (in vivo [7]; Kidneys): 21.1 ± 1.97 %ID/g
tissue uptake at 0.5 h (in vivo [7]; Lungs): 2.37 ± 0.77 %ID/g
tissue uptake at 0.5 h (in vivo [7]; Lymph Node): 0.39 ± 0.05 %ID/g
tissue uptake at 0.5 h (in vivo [7]; Spleen): 0.35 ± 0.02 %ID/g
tissue uptake at 0.5 h (in vivo [7]; Tumour (colon)): 2.02 ± 0.02 %ID/g
Molecule: CC[C@H](C)[C@H](NC(=O)[C@H](Cc1ccc(O)cc1)NC(=O)[C@@H]1CCCN1C(=O)[C@@H](NC(=O)[C@H](CCCCN)NC(=O)CN1CCN(CC(=O)O)CCN(CC(=O)O)CCN(CC(=O)O)CC1)[C@@H](C)CC)C(=O)N[C@@H](CC(C)C)C(=O)O [^68Ga-DOTA-NMN, metal not drawn] ({DOTA}-KIPYIL-OH; C-terminus assumed)

tissue uptake at 0.5 h (in vivo [6]; Blood): 6.48 ± 1.53 %ID/g
tissue uptake at 0.5 h (in vivo [6]; Kidneys): 18 ± 3.78 %ID/g
tissue uptake at 0.5 h (in vivo [6]; Tumour (prostate)): 3.78 ± 0.27 %ID/g
tissue uptake at 0.5 h (in vivo [7]; Blood): 6.42 ± 0.27 %ID/g
tissue uptake at 0.5 h (in vivo [7]; Bone): 0.75 ± 0.06 %ID/g
tissue uptake at 0.5 h (in vivo [7]; Kidneys): 18.7 ± 0.67 %ID/g
tissue uptake at 0.5 h (in vivo [7]; Lymph Node): 1.1 ± 0.45 %ID/g
tissue uptake at 0.5 h (in vivo [7]; Tumour (colon)): 3.31 ± 0.76 %ID/g
Molecule: CSCC[C@H](NC(=O)[C@H](CC(C)C)NC(=O)[C@H](Cc1c[nH]cn1)NC(=O)CNC(=O)[C@@H](NC(=O)[C@H](C)NC(=O)[C@H](Cc1c[nH]c2ccccc12)NC(=O)[C@H](CCC(N)=O)NC(=O)CCOCCOCCOCCOCCNC(=O)CN1CCN(CC(=O)O)CCN(CC(=O)O)CCN(CC(=O)O)CC1)C(C)C)C(N)=O [^68Ga-DOTA-PEG(4)-BBN(7-14), metal not drawn]

Molecule: DOTA-NMB-AuNP: cold DOTA-neuromedin B-functionalized gold nanoparticles
Hydrodynamic Diameter [8]: 72.18 nm
Zeta Potential [8]: −47.3 mV

Molecule: DOTA-NMN-AuNP: cold DOTA-neuromedin N-functionalized gold nanoparticles
Hydrodynamic Diameter [8]: 73.29 nm
Zeta Potential [8]: −49.6 mV

Molecule: DOTA-NT-AuNP: cold DOTA-neurotensin-functionalized gold nanoparticles
Hydrodynamic Diameter [8]: 72.36 nm
Zeta Potential [8]: −44.4 mV

Molecule: [^18F]FDG
Tumour uptake (colon tumour): 2.5 ± 0.5 % ID/g

Molecule: ^68Ga-DOTA-NMB-AuNP: NHS-activated PEG-gold nanoparticles functionalized with ^68Ga-DOTA-Neuromedin B
Uptake profile (HT-29 colon cancer cells): up and down trend

Molecule: ^68Ga-DOTA-NT-AuNP: NHS-activated PEG-gold nanoparticles functionalized with ^68Ga-DOTA-NT
Hydrodynamic Diameter [8]: 72.36 nm
